Test results as given in patent US6670145B2, “Method for detection of total coliforms and E. coli” (The United States of America as represented by the …, priority 1991, dated 2003).
Structures can show the parent of a compound that is named as a salt.

Assays:
[1] = system: total coliform colonies; experiment: Other β-galactosidase substrates tested with IBDG in the selective base medium; type: cell-based, total coliforms; conditions: β-galactosidase substrate tested with IBDG in selective base medium
Source text: (§1) The selective base medium without the substrates MUGal and IBDG (with or without agar) can be used with other β-galactosidase and β-glucuronidase substrates for the detection of total coliforms and/or E. coli. For example, each of three other β-galactosidase substrates (2-Nitrophenyl-β-D-galactopyranoside, Chlorophenol Red-β-galactopyranoside, and Resorufin-β-D-Galactopyranoside) have been tested with IBDG in this lab. […] We believe other combinations of substrates in this base medium would also work in the various embodiments described in this document, and different enzyme substrates (other than β-galactosidase and β-glucuronidase substrates) for specific coliforms could be used in this base medium because of its selectivity. The following guidance is provided for choosing ingredients for the alternative embodiments.

[2] = system: Escherichia coli (EPA 206); experiment: Confirmatory spot test with enzyme substrates; type: cell-based; set-up: key to Reactions in Wells Containing: MUGal (fluorescence): +: A positive reaction is shown by fluorescence of the well under long wave ultraviolet light; key to Reactions in Wells Containing: IBDG (blue color): +: A positive reaction is shown by production of a blue color in the well; conditions: 35° C., up to 24 hours
Method: (§2) One hundred microliter volumes of a bacterial suspension were placed in three wells of a sterile porcelain spot test plate or other suitable plate with wells. The bacterial suspension was obtained in one of the following ways:
(§3) 1. A loopful of bacterial growth from a slant or an isolated colony from an agar plate was emulsified in a small amount of the liquid MI broth medium without substrates or other non-selective broths.
(§4) 2. Aliquots of 100 μl of a bacterial culture grown over-night at 35° C. in a non-selective broth or the liquid medium without substrates were used.
(§5) Sixty microliters of a freshly-prepared, filter-sterilized 16 mg/ml IBDG solution was added to one well of bacterial suspension, and 300 μl of a freshly-prepared, filter-sterilized 1 mg/ml MUGal solution was added to a second well. The third well, containing only bacterial suspension (negative control), was used as a comparator to distinguish positive and negative wells. Additional wells were inoculated with uninoculated medium, IBDG, and MUGal as controls. The plates were covered with sterile foil and incubated at 35° C. for up to 24 hours. […] This test could also be performed by adding all of the test liquids and culture or sample to a piece of filter paper or to an absorbent pad and observing the reactions.

[3] = system: Escherichia coli (ATCC 25922); experiment: Confirmatory spot test with enzyme substrates; type: cell-based; set-up: key to Reactions in Wells Containing: MUGal (fluorescence): +: A positive reaction is shown by fluorescence of the well under long wave ultraviolet light; key to Reactions in Wells Containing: IBDG (blue color): +: A positive reaction is shown by production of a blue color in the well; conditions: 35° C., up to 24 hours
Method: as §2, §3, §4, §5

[4] = system: Klebsiella pneumoniae (EPA 207); experiment: Confirmatory spot test with enzyme substrates; type: cell-based; set-up: key: +: A positive reaction is shown by fluorescence of the well under long wave ultraviolet light; conditions: 35° C., up to 24 hours, UV 366 nm
Method: as §2, §3, §4, §5

[5] = system: Enterobacter aerogenes (EPA 202); experiment: Confirmatory spot test with enzyme substrates; type: cell-based; set-up: key: +: A positive reaction is shown by fluorescence of the well under long wave ultraviolet light; conditions: 35° C., up to 24 hours, UV 366 nm
Method: as §2, §3, §4, §5

[6] = system: E. coli colonies; experiment: Other β-galactosidase substrates tested with IBDG in the selective base medium; type: cell-based; conditions: IBDG with each of three other β-galactosidase substrates in selective base medium
Source text: as §1

O=[N+]([O-])c1ccccc1O[C@@H]1O[C@H](CO)[C@H](O)[C@H](O)[C@H]1O [2-Nitrophenyl-β-D-galactopyranoside]
colors of the total coliform colonies [1]: yellow

O=S1(=O)OC(c2ccc(O)c(Cl)c2)(c2ccc(O[C@@H]3O[C@H](CO)[C@H](O)[C@H](O)[C@H]3O)c(Cl)c2)c2ccccc21 (stereo partly drawn) [Chlorophenol Red-β-galactopyranoside]
colors of the total coliform colonies [1]: orchid

O=c1ccc2nc3ccc(O[C@@H]4O[C@H](CO)[C@H](O)[C@H](O)[C@H]4O)cc3oc-2c1 [Resorufin-β-D-Galactopyranoside]
colors of the total coliform colonies [1]: pink-red

Cc1cc(=O)oc2cc(O[C@@H]3O[C@H](CO)[C@H](O)[C@H](O)[C@H]3O)ccc12 [MUGal, 4-Methylumbelliferyl-Beta-D-galactopyranoside]
Reactions in Wells Containing: MUGal (fluorescence) ([2]; UV 366 nm): + | Reactions in Wells Containing: MUGal (fluorescence) ([3]; UV 366 nm): + | Reactions in Wells Containing: MUGal (fluorescence) [4]: + | Reactions in Wells Containing: MUGal (fluorescence) [5]: +

O=C(O)[C@H]1O[C@@H](Oc2c[nH]c3ccccc23)[C@H](O)[C@@H](O)[C@@H]1O [IBDG, Indoxyl-Beta-D-glucuronide, sodium salt or cyclohexylammonium salt]
Reactions in Wells Containing: IBDG (blue color) [2]: + | Reactions in Wells Containing: IBDG (blue color) [3]: + | color of the E. coli colonies [6]: varying shades of blue
